According to PMC6480038, “In Vitro and In Silico Acetylcholinesterase Inhibitory Activity of Thalictricavine and Canadine and Their Predicted Penetration across the Blood-Brain Barrier” (Molecules, 2019):

Key:
[1] = molecular target: T1, human recombinant acetylcholinesterase (hAChE) (Homo sapiens, UniProt P22303); test: biochemical; conditions: for SI (selectivity index for hAChE): ratio IC50 hBChE / IC50 hAChE; for IC50: recombinant hAChE, ATCh substrate, pH 7.4, 37 °C, mean ± SEM of three measurements
T1 construct: purchased Sigma-Aldrich (Prague, Czech Republic)
Text: (§1) Human recombinant acetylcholinesterase (hAChE; EC 3.1.1.7), human plasma butyrylcholinesterase (hBChE; EC 3.1.1.8), 5,5′-dithiobis(2-nitrobenzoic acid) (Ellman’s reagent, DTNB), phosphate buffer (PB, pH 7.4), dimethyl sulfoxide (DMSO), acetylthiocholine (ATCh), and butyrylthiocholine (BTCh) were purchased from Sigma-Aldrich (Prague, Czech Republic). Polystyrene Nunc 96-well microplates with flat bottom shape (ThermoFisher Scientific, Waltham, MA, USA) were utilized for measuring purposes of cholinesterase assays and the kinetic inhibition study.
(§2) The hAChE and hBChE inhibitory activity of the tested compounds was determined using a modified Ellman’s method. All the assays were carried out in 0.1 M KH2PO4/K2HPO4 buffer, pH 7.4. Enzyme solutions were prepared at an activity of 2.0 units/mL in 2 mL aliquots. The assay medium ([…]) consisted of 40 µL of 0.1 M phosphate buffer (pH 7.4), 20 µL of 0.01 M DTNB, 10 µL of enzyme, and 20 µL of 0.01 M substrate (ATCh iodide solution). […] The reaction started by addition of 20 µL of the substrate (ATCh for hAChE, BTCh for hBChE). […] Each concentration was assayed in triplicate.

[2] = molecular target: T2, human plasma butyrylcholinesterase (hBChE) (Homo sapiens, UniProt P06276); test: hBChE inhibition, modified Ellman's method; assay type: biochemical; conditions: BTCh substrate, pH 7.4, 37 °C, mean ± SEM of three measurements
T2 construct: Recombinant hAChE and plasma hBChE were used as sources of cholinesterases; purchased Sigma-Aldrich (Prague, Czech Republic); host or cells: human plasma
Text: as §1, §2

recombinant hAChE = molecular target: T3, recombinant hAChE (Homo sapiens, UniProt P22303); test: Kinetic study of hAChE inhibition; assay type: biochemical; conditions: for type of inhibition: nonlinear regression with sum-of-squares F-test, p < 0.05; for Ki: nonlinear regression, ATCh 156–1250 µM
T3 construct: purchased Sigma-Aldrich (Prague, Czech Republic)
Text: The mode of interaction of the hAChE inhibition was elucidated for 1 and 2 using a kinetic study in order to gain information about the mode of inhibition and the binding site of the isolated alkaloids. Recombinant hAChE was used in this kinetic analysis of 1 and 2. […] The type of the inhibition mechanism was clarified by a nonlinear regression analysis. The results computed for each model type of inhibition (competitive, non-competitive, uncompetitive and mixed) were compared with the sum-of-squares F-test.
The kinetic study of hAChE inhibition was performed by using Ellman’s method (described above). […] Reactions were performed in triplicate. Vmax and Km values, respectively, of the Michaelis-Menten kinetics and Ki were calculated by non-linear regression from the substrate velocity curves. Linear regression was used for calculation of Lineweaver-Burk plots. All calculations were performed using the GraphPad Prism software.

in vitro = conditions: pig, PAMPA, pH 7.4
[3] = system: selected human carcinoma and non-carcinoma cells; conditions: read-out: cytotoxicity IC50; cited from earlier work
[4] = Table S1, predictive penetration into the CNS
[5] = system: AChE (red blood cell ghosts); conditions: earlier screening, 25 °C, red blood cell ghosts as AChE source; cited from earlier work

T1 sequence (P22303 32-614): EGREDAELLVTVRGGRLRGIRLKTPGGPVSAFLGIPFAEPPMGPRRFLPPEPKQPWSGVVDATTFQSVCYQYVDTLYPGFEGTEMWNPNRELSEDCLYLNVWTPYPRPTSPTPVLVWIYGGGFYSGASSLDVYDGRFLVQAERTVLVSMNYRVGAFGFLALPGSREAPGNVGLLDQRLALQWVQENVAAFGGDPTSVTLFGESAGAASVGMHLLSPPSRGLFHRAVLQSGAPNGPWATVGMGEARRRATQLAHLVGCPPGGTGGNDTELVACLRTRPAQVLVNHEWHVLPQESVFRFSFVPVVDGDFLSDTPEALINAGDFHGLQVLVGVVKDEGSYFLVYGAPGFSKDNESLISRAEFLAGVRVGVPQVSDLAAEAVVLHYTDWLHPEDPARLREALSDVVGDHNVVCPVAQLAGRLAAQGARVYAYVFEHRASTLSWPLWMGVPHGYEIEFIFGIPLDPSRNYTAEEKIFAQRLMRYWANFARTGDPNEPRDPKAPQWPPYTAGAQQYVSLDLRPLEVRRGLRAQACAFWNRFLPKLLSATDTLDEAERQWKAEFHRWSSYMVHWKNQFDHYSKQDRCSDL
T3 sequence (P22303 32-614): as above
T2 sequence (P06276 29-602): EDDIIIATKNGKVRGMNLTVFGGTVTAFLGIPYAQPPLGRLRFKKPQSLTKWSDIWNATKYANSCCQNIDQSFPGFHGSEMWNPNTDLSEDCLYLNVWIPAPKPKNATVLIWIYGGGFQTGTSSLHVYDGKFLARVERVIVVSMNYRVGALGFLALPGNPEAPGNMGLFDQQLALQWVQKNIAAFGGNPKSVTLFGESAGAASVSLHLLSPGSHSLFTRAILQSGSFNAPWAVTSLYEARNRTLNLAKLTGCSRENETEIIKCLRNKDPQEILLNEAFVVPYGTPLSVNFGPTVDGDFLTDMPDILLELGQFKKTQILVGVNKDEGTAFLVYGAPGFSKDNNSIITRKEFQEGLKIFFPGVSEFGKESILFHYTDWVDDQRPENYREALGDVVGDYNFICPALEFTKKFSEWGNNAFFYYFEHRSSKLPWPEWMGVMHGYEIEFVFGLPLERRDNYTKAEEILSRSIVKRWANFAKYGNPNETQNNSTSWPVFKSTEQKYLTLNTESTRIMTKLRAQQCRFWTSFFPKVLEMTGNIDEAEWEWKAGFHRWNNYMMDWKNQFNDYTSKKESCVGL

Row | SMILES | SI (selectivity index for hAChE) [1] | IC50 [1] [µM] | IC50 [2] [µM] | type of inhibition (recombinant hAChE) | Ki (recombinant hAChE) [µM] | Papp (in vitro) [×10⁻⁶ cm/s] | IC50 [3] [µM] | PAMPA-BBB prediction [4] | IC50 value for AChE [5]
1 | COc1ccc2c(c1OC)CN1CCc3cc4c(cc3[C@H]1[C@H]2C)OCO4 [Compound 1, (+)-thalictricavine] | >263 | 0.38 ± 0.05 | > 100 | competitive | 0.174 ± 0.0569 | 2.5 ± 0.1 | > 10 | – | –
2 | Cn1c(=O)c2c(ncn2C)n(C)c1=O [caffeine, reference compound] | – | – | – | – | – | 0.3 | – | – | –
3 | COc1ccc2c(c1OC)CN1CCc3cc4c(cc3[C@H]1C2)OCO4 [Compound 2, (+)-canadine] | >143 | 0.7 ± 0.07 | > 100 | competitive | 0.129 ± 0.044 | 5 ± 0.3 | > 10 | CNS + | low micromolar range
